# Source: patent US9474275B2, “Cyanoenamines and their use as fungicides” (priority 2010, dated 2016)
# Conditions: method [a]: LC-MS at pH 2.7, 0.1% formic acid in water / acetonitrile, linear gradient 10% to 95% acetonitrile
# Method: Measurement of log P values was performed according EEC directive 79/831 Annex V.A8 by HPLC (High Performance Liquid Chromatography) on reversed phase columns with the following methods:
# ^[a] measurement of LC-MS was done at pH 2.7 with 0.1% formic acid in water and with acetonitrile (contains 0.1% formic acid) as eluent with a linear gradient from 10% acetonitrile to 95% acetonitrile.
row,SMILES,LogP
1,CCCC(=O)C(C#N)=C(NC(C)c1ccco1)c1cccnc1Cl (racemic) [Compound 99],3.31^[a]
2,CCCC(=O)C(C#N)=C(NC(C)c1nc(C)c(C)s1)c1cccnc1Cl (racemic) [Compound 105],3.02^[a]
3,CCCC(=O)C(C#N)=C(NC(C)CC(C)C)c1cccnc1Cl (racemic) [Compound 115],3.99^[a]
4,CCCC(=O)C(C#N)=C(NC(C)CC1CC1)c1cccnc1Cl (racemic) [Compound 118],3.63^[a]
5,CCCC(=O)C(C#N)=C(NC(C)c1nc(C)c(C)s1)c1cn(C)nc1C(F)F (racemic) [Compound 123],2.92^[a]
6,CCCC(=O)C(C#N)=C(NC(C)CC(C)C)c1cn(C)nc1C(F)F (racemic) [Compound 127],3.63^[a]
7,CCCC(=O)C(C#N)=C(NC(C)CCc1ccccc1)c1cn(C)nc1C(F)F (racemic) [Compound 128],3.83^[a]
8,CC(C)C(C)NC(=C(C#N)C(=O)C1(Cl)CC1)c1cccnc1Cl (stereo not shown) [Compound 3],3.44^[a]
9,CC(C)C(C)NC(=C(C#N)C(=O)C1CCCCO1)c1cccnc1Cl (stereo not shown) [Compound 6],3.00^[a]
10,CC(C)C(C)NC(=C(C#N)C(=O)C1CCCC1)c1cccnc1Cl (stereo not shown) [Compound 7],4.23^[a]
11,CC(NC(=C(C#N)C(=O)Cc1ccccc1)c1cccnc1Cl)C1CC1 (stereo not shown) [Compound 8],3.23^[a]
12,CC(C)C(=O)C(C#N)=C(NC(C)C(C)C)c1cccnc1Cl (stereo not shown) [Compound 9],3.60^[a]
13,CC(NC(=C(C#N)C(=O)C1CCC1)c1cccnc1Cl)C1CC1 (stereo not shown) [Compound 12],3.44^[a]
14,CC(C)C(C)NC(=C(C#N)C(=O)CN(C)C)c1cccnc1Cl (stereo not shown) [Compound 13],1.39^[a]
15,CC(NC(=C(C#N)C(=O)C1CCCC1)c1cccnc1Cl)C1CC1 (stereo not shown) [Compound 14],3.83^[a]
16,CNCC(=O)C(C#N)=C(NC(C)C(C)C)c1cccnc1Cl (stereo not shown) [Compound 15],1.50^[a]
17,CC(C)OCC(=O)C(C#N)=C(NC(C)C(C)C)c1cccnc1Cl (stereo not shown) [Compound 19],3.19^[a]
18,CC(NC(=C(C#N)C(=O)C1CCCC1)c1cn(C)nc1C(F)F)C1CC1 (stereo not shown) [Compound 21],3.58^[a]
19,CCC(=O)C(C#N)=C(NC(C)C1CC1)c1cccnc1Cl (stereo not shown) [Compound 22],2.88^[a]
20,CC(C)C(C)NC(=C(C#N)C(=O)Cc1ccccc1)c1cccnc1Cl (stereo not shown) [Compound 29],3.85^[a]
21,CCCC(=O)C(C#N)=C(NC1CC1CC)c1cccnc1Cl (stereo not shown) [Compound 31],3.51^[a]

row,SMILES,LogP
1,CC(C)C(C)NC(=C(C#N)C(=O)CCl)c1cn(C)nc1C(F)F (stereo not shown) [Compound 32],2.86^[a]
2,CC(C)C(C)NC(=C(C#N)C(=O)CN1CCCC1)c1cccnc1Cl (stereo not shown) [Compound 35],1.52^[a]
3,CCC(F)(F)C(=O)C(C#N)=C(NC(C)C(C)C)c1cccnc1Cl (stereo not shown) [Compound 37],3.55^[a]
4,CCCCC(=O)C(C#N)=C(NC1CC1CC)c1cccnc1Cl (stereo not shown) [Compound 38],3.94^[a]
5,CC(C)C(C)NC(=C(C#N)C(=O)CNC1CC1)c1cccnc1Cl (stereo not shown) [Compound 39],1.74^[a]
6,COCC(=O)C(C#N)=C(NC(C)C(C)C)c1cccnc1Cl (stereo not shown) [Compound 41],2.48^[a]
7,CC(NC(=C(C#N)C(=O)C1CC1)c1cccnc1Cl)C1CC1 (stereo not shown) [Compound 42],3.06^[a]
8,CCCC(=O)C(C#N)=C(NC(C)C1CC1)c1cccnc1Cl (stereo not shown) [Compound 43],3.25^[a]
9,CC(C)C(C)NC(=C(C#N)C(=O)CCl)c1cccnc1Cl (stereo not shown) [Compound 45],3.02^[a]
10,CSCC(=O)C(C#N)=C(NC(C)C(C)C)c1cccnc1Cl (stereo not shown) [Compound 46],3.13^[a]
11,CC(C)C(C)NC(=C(C#N)C(=O)c1ccco1)c1cccnc1Cl (stereo not shown) [Compound 48],3.11^[a]
12,COCC(=O)C(C#N)=C(NC(C)C1CC1)c1cccnc1Cl (stereo not shown) [Compound 49],2.23^[a]
13,CNCC(=O)C(C#N)=C(NC(C)C(C)C)c1cn(C)nc1C(F)F (stereo not shown) [Compound 50],1.60^[a]
14,CC(C)C(C)NC(=C(C#N)C(=O)C1CCCCC1)c1cccnc1Cl (stereo not shown) [Compound 53],4.50^[a]
15,CC(NC(=C(C#N)C(=O)CC1CC1)c1cccnc1Cl)C1CC1 (stereo not shown) [Compound 54],3.31^[a]
16,CC(NC(=C(C#N)C(=O)c1ccco1)c1cccnc1Cl)C1CC1 (stereo not shown) [Compound 55],2.80^[a]
17,CCNCC(=O)C(C#N)=C(NC(C)C(C)C)c1cccnc1Cl (stereo not shown) [Compound 57],1.68^[a]
18,CC(C)C(C)NC(=C(C#N)C(=O)CNC1CC1)c1cn(C)nc1C(F)F (stereo not shown) [Compound 58],1.78^[a]
19,CCNCC(=O)C(C#N)=C(NC(C)C(C)C)c1cn(C)nc1C(F)F (stereo not shown) [Compound 60],1.63^[a]
20,CC(C)C(C)NC(=C(C#N)C(=O)C1CC1C)c1cccnc1Cl (stereo not shown) [Compound 61],3.80^[a]
21,COCCC(=O)C(C#N)=C(NC(C)C(C)C)c1cccnc1Cl (stereo not shown) [Compound 65],2.78^[a]

row,SMILES,LogP
1,CC(C)C(C)NC(=C(C#N)C(=O)CN1CCCC1)c1cn(C)nc1C(F)F (stereo not shown) [Compound 66],1.31^[a]
2,COC(C)C(=O)C(C#N)=C(NC(C)C(C)C)c1cccnc1Cl (stereo not shown) [Compound 67],2.70^[a]
3,CCC(=O)C(C#N)=C(NC1CC1CC)c1cccnc1Cl (stereo not shown) [Compound 68],3.13^[a]
4,CCC(=O)C(C#N)=C(NC(C)C1CC1)c1cn(C)nc1C(F)F (stereo not shown) [Compound 69],2.73^[a]
5,CC(C)C(C)NC(=C(C#N)C(=O)C1CC1)c1cccnc1Cl (stereo not shown) [Compound 71],3.39^[a]
6,CC(C)C(C)NC(=C(C#N)C(=O)CCCCl)c1cccnc1Cl (stereo not shown) [Compound 74],3.63^[a]
7,CCC(C)C(=O)C(C#N)=C(NC(C)C(C)C)c1cccnc1Cl (stereo not shown) [Compound 76],3.9^[a]
8,CC(C)C(C)NC(=C(C#N)C(=O)C1CCCC1)c1cn(C)nc1C(F)F (stereo not shown) [Compound 78],3.81^[a]
9,CCCC(=NOC)C(C#N)=C(NC(C)C(C)C)c1cn(C)nc1C(F)F (stereo not shown) [Compound 79],4.24^[a]
10,COCC(=O)C(C#N)=C(NC(C)c1nccs1)c1cn(C)nc1C(F)F (stereo not shown) [Compound 82],1.76^[a]
11,CCCC(=O)C(C#N)=C(NC(C)C(C)C)c1cc(C)nn1C(F)F (stereo not shown) [Compound 92],3.92^[a]
12,Cc1cc(C(NC(C)C(C)C)=C(C#N)C(=O)CC2CC2)n(C(F)F)n1 (stereo not shown) [Compound 93],3.87^[a]
13,CCCC(=O)C(C#N)=C(NC(C)c1nccs1)c1cc(C)nn1C(F)F (stereo not shown) [Compound 94],3.11^[a]
14,CCCC(=O)C(C#N)=C(NC(C)COC)c1cc(C)nn1C(F)F (stereo not shown) [Compound 95],3.13^[a]
15,COCC(C)NC(=C(C#N)C(=O)CC1CC1)c1cc(C)nn1C(F)F (stereo not shown) [Compound 96],3.11^[a]
16,Cc1cc(C(NC(C)c2nccs2)=C(C#N)C(=O)CC2CC2)n(C(F)F)n1 (stereo not shown) [Compound 97],3.09^[a]
17,CCCC(=O)C(C#N)=C(NC(C)Cc1ccccc1)c1cccnc1Cl (stereo not shown) [Compound 108],3.83^[a]
18,CCCC(=O)C(C#N)=C(NC(C)C(=O)NC)c1cn(C)nc1C(F)F (stereo not shown) [Compound 109],1.79^[a]
19,CCCC(=O)C(C#N)=C(NC(C)Cc1ccccc1)c1cn(C)nc1C(F)F (stereo not shown) [Compound 111],3.55^[a]
